Laboratory results published in ChEMBL document CHEMBL3879902, “Compounds and methods for kinase modulation, and indications thereof” (2012).

Columns and labels:
[1] = Aqueous solubility of the compound in hepes buffer at pH 7.4; type: physicochemical
[2] = Aqueous solubility of the compound in simulated intestinal fluid at pH 6.8; type: ADME; details: simulated gi fluid
[3] = Aqueous solubility of the compound in simulated gastric fluid at pH 1.5; type: ADME; details: simulated gi fluid
[4] = Aqueous solubility of the compound in simulated intestinal fluid at pH 4.5; type: ADME; details: simulated gi fluid

| SMILES | solubility [1] | solubility [2] | solubility [3] | solubility [4] |
| --- | --- | --- | --- | --- |
| CCCS(=O)(=O)Nc1ccc(F)c(C(=O)c2c[nH]c3ncc(-c4ccc(OCCCN5CCOCC5)nc4)cc23)c1F | Insoluble | Insoluble | Soluble | Soluble |
| CCCS(=O)(=O)Nc1ccc(F)c(C(=O)c2c[nH]c3ncc(-c4cnc(C)nc4)cc23)c1F | Soluble | Soluble | Soluble | Soluble |
| CCCS(=O)(=O)Nc1ccc(F)c(C(=O)c2c[nH]c3ncc(-c4ccc(NC(C)=O)nc4)cc23)c1F | Insoluble | Insoluble | Soluble | Insoluble |
| CCCS(=O)(=O)Nc1ccc(F)c(C(=O)c2c[nH]c3ncc(-c4ccc(S(N)(=O)=O)cc4)cc23)c1F | Insoluble | Insoluble | Insoluble | Insoluble |
| CCCS(=O)(=O)Nc1ccc(F)c(C(=O)c2c[nH]c3ncc(-c4cnn(Cc5ccccc5)c4)cc23)c1F | Insoluble | Insoluble | Insoluble | Insoluble |
| CCCS(=O)(=O)Nc1ccc(F)c(C(=O)c2c[nH]c3ncc(-c4ccc(OCCN5CCOCC5)nc4)cc23)c1F | Insoluble | Insoluble | Soluble | Soluble |
| CCCS(=O)(=O)Nc1cccc(C(=O)c2c[nH]c3ncc(-c4cnc(OC)nc4)cc23)c1F | Insoluble | Insoluble | Insoluble | Insoluble |
| CCCS(=O)(=O)Nc1ccc(F)c(C(=O)c2c[nH]c3ncc(-c4ccc(N5CCCC5)nc4)cc23)c1F | Insoluble | Insoluble | Insoluble | Insoluble |
| CCCS(=O)(=O)Nc1ccc(F)c(C(=O)c2c[nH]c3ncc(-c4ccnc(F)c4)cc23)c1F | Insoluble | Insoluble | Insoluble | Insoluble |
| CCCS(=O)(=O)Nc1cccc(C(=O)c2c[nH]c3ncc(-c4cnc(N(C)C)nc4)cc23)c1F | Insoluble | Insoluble | Insoluble | Insoluble |
| CCCS(=O)(=O)Nc1ccc(F)c(C(=O)c2c[nH]c3ncc(-c4cnc(N5CCCC5)nc4)cc23)c1F | Insoluble | Insoluble | Soluble | Insoluble |
| CCCS(=O)(=O)Nc1ccc(F)c(C(=O)c2c[nH]c3ncc(-c4ccc(C)nc4)cc23)c1F | Insoluble | Insoluble | Soluble | Soluble |
| CCCS(=O)(=O)Nc1ccc(F)c(C(=O)c2c[nH]c3ncc(-c4ccc(OCCCN5CCCC5)nc4)cc23)c1F | Insoluble | Insoluble | Insoluble | Soluble |
| CCCS(=O)(=O)Nc1ccc(F)c(C(=O)c2c[nH]c3ncc(-c4cnc(N(C)C)nc4)cc23)c1F | Insoluble | Insoluble | Soluble | Insoluble |
| CCCS(=O)(=O)Nc1ccc(F)c(C(=O)c2c[nH]c3ncc(-c4cnc(N5CCOCC5)nc4)cc23)c1F | Insoluble | Insoluble | Soluble | Insoluble |
| CCCS(=O)(=O)Nc1ccc(F)c(C(=O)c2c[nH]c3ncc(C#CCOC)cc23)c1F | Soluble | Insoluble | Insoluble | Soluble |
| C#Cc1cnc2[nH]cc(C(=O)c3c(F)ccc(NS(=O)(=O)CCC)c3F)c2c1 | Insoluble | Insoluble | Insoluble | Insoluble |
| CCCS(=O)(=O)Nc1ccc(F)c(C(=O)c2c[nH]c3ncc(-c4ccc(C#CCN(CC)CC)nc4)cc23)c1F | Insoluble | Insoluble | Insoluble | Insoluble |
| CCCS(=O)(=O)Nc1ccc(F)c(C(=O)c2c[nH]c3ncc(-c4ccc(N(C)C)nc4)cc23)c1F | Soluble | Soluble | Soluble | Insoluble |
| CCCS(=O)(=O)Nc1ccc(F)c(C(=O)c2c[nH]c3ncc(-c4ccc(OCCN5CCCC5)nc4)cc23)c1F | Soluble | Insoluble | Insoluble | Soluble |
